Measured values taken from patent publication US9545105B2, “1-(heterocyclic carbonyl) piperidines” (BAYER INTELLECTUAL PROPERTY GMBH, priority 2010, dated 2017).

Columns and labels:
[1] = log P by HPLC on reversed-phase column (C 18), EEC Directive 79/831 Annex V.A8; type: physicochemical; conditions: HPLC on reversed-phase column (C 18); 40° C.; 0.1% aqueous formic acid and acetonitrile; linear gradient 10% to 90% acetonitrile
Outline: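 Calibration relied on straight-chain alkan-2-ones with 3 to 16 carbon atoms and known log P, with sample values read by linear interpolation of retention time between two adjacent standards. Separation at 40° C used 0.1% aqueous formic acid with acetonitrile rising linearly from 10% to 90%. UV spectra from 200 nm to 400 nm at chromatographic peak maxima gave lambda-max.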

Sphaerotheca fuliginea = assay: In vivo preventive test on Sphaerotheca fuliginea (cucumber); conditions: 500 ppm of active ingredient, evaluated 7 days after inoculation
Outline: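 Active compound in DMF with alkylarylpolyglycolether emulsifier, diluted in water and sprayed on young cucumber plants at the stated rate. One day later, plants inoculated with S. fuliginea spore suspension and kept at about 23 °C, 70% RH; efficacy scored 7 days post-inoculation, 0% = untreated, 100% = no disease.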

Alternaria solani = assay: In vivo preventive test on Alternaria solani (tomato); conditions: 500 ppm of active ingredient, evaluated 7 days after inoculation
Outline: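 Young tomato plants were sprayed preventively with compound in DMF/alkylarylpolyglycolether diluted in water, then inoculated one day later with A. solani spores. Incubation was 1 day at about 22 °C and 100% RH, then about 20 °C and 96% RH. Efficacy was scored 7 days after inoculation (0% = untreated control, 100% = no disease).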

Venturia inaequalis = assay: In vivo preventive test on Venturia inaequalis (apple scab); conditions: 100 ppm of active ingredient, evaluated 10 days after inoculation
Protocol: Solvent: 24.5 parts by weight of acetone • 24.5 parts by weight of N,N-dimethylacetamide Emulsifier: 1 part by weight of alkylaryl polyglycol ether To produce a suitable preparation of active compound, 1 part by weight of active compound is mixed with the stated amounts of solvent and emulsifier, and the concentrate is diluted with water to the desired concentration. To test for preventive activity, young plants are sprayed with the preparation of active compound at the stated rate of application. After the spray coating has dried on, the plants are inoculated with an aqueous conidia suspension of the causal agent of apple scab (Venturia inaequalis) and then remain for 1 day in an incubation cabinet at approximately 20° C. and a relative atmospheric humidity of 100%. The plants are then placed in a greenhouse at approximately 21° C. and a relative atmospheric humidity of approximately 90%. The test is evaluated 10 days after the inoculation. 0% means an efficacy which corresponds to that of the untreated control, while an efficacy of 100% means that no disease is observed.

[2] = test system: Blumeria graminis f. sp. hordei; assay: In vivo preventive test on Blumeria graminis (barley); conditions: 500 ppm of active ingredient, evaluated 7 days after inoculation
Protocol: (§1) Solvent: 49 parts by weight of N,N-dimethylacetamide Emulsifier: 1 part by weight of alkylaryl polyglycol ether To produce a suitable preparation of active compound, 1 part by weight of active compound or active compound combination is mixed with the stated amounts of solvent and emulsifier, and the concentrate is diluted with water to the desired concentration. To test for preventive activity, young plants are sprayed with the preparation of active compound or active compound combination at the stated rate of application. After the spray coating has been dried, the plants are dusted with spores of Blumeria graminis f. sp. hordei. The plants are placed in the greenhouse at a temperature of approximately 18° C. and a relative atmospheric humidity of approximately 80% to promote the development of mildew pustules. The test is evaluated 7 days after the inoculation. 0% means an efficacy which corresponds to that of the untreated control, while an efficacy of 100% means that no disease is observed.

Leptosphaeria nodorum = assay: In vivo preventive test on Leptosphaeria nodorum (wheat); conditions: 500 ppm of active ingredient, evaluated 8 days after inoculation
Protocol: as §1, with “sprayed” for “dusted”, “a spore suspension” for “spores”, “Leptosphaeria nodorum. The plants remain for 48 hours in an incubation cabinet at approximately 20° C. and a relative atmospheric humidity of approximately 100%.” for “Blumeria graminis f. sp. hordei.”, “22°” for “18°”, “80%.” for “80% to promote the development of mildew pustules.”, “8” for “7”

[3] = test system: Fusarium nivale (var. majus); assay: In vivo preventive test on Fusarium nivale (wheat); conditions: 500 ppm of active ingredient, evaluated 5 days after inoculation
Protocol: Solvent: 49 parts by weight of N,N-dimethylacetamide Emulsifier: 1 part by weight of alkylaryl polyglycol ether To produce a suitable preparation of active compound, 1 part by weight of active compound or active compound combination is mixed with the stated amounts of solvent and emulsifier, and the concentrate is diluted with water to the desired concentration. To test for preventive activity, young plants are sprayed with the preparation of active compound or active compound combination at the stated rate of application. After the spray coating has been dried, the plants are slightly injured by using a sandblast and afterwards they are sprayed with a conidia suspension of Fusarium nivale (var. majus). The plants are placed in the greenhouse under a translucent incubation cabinet at a temperature of approximately 10° C. and a relative atmospheric humidity of approximately 100%. The test is evaluated 5 days after the inoculation. 0% means an efficacy which corresponds to that of the untreated control, while an efficacy of 100% means that no disease is observed.

Row | Compound | logP [1] | Efficacy (Sphaerotheca fuliginea) [%] | Efficacy (Alternaria solani) [%] | Efficacy (Venturia inaequalis) [%] | Efficacy [2] [%] | Efficacy (Leptosphaeria nodorum) [%] | Efficacy [3] [%]
1 | CCc1nn(C)c(F)c1C(=O)N1CCCCC1c1cc(C)cc(C)c1 (stereo not drawn) [Example 11] | 3.62 | 95 | 100 | 100 | 80 | – | 83
2 | CCc1nn(C)c(F)c1C(=O)N1CCCCC1c1ccc(Cl)cc1 (stereo not drawn) [Example 54] | 3.35 | – | 95 | 98 | 70 | 100 | 71

Further lines, with some results ahead:

Row | logP [1] | Compound | Efficacy (Sphaerotheca fuliginea) [%] | Efficacy (Alternaria solani) [%] | Efficacy (Venturia inaequalis) [%] | Efficacy [2] [%] | Efficacy (Leptosphaeria nodorum) [%] | Efficacy [3] [%]
3 | 3.23 | Cc1cc(C)cc(C2CCCCN2C(=O)c2c(C)nn(C)c2F)c1 (stereo not drawn) [Example 10] | 95 | 90 | 100 | 88 | 71 | 88
4 | 3.59 | CCC(c1ccccc1)C1CCCCN1C(=O)c1c(C(F)F)nn(C)c1F (stereo not drawn) [Example 136] | 98 | 100 | 100 | 100 | 100 | 86
5 | 4.39 | CCC(c1ccccc1)C1CCCCN1C(=S)c1c(C(F)F)nn(C)c1F (stereo not drawn) [Example 140] | 100 | 100 | 100 | 100 | 93 | 71
